{"source": "paper PMC11583597", "about": "“Brain uptake pharmacokinetics of albiglutide, dulaglutide, tirzepatide, and DA5-CH in the search for new treatments of Alzheimer’s and Parkinson’s diseases” (Tissue Barriers, 2023)", "key": {"[1]": {"parameters": "species or system male CD-1 mice", "settings": "mouse, in vivo, iv", "description": "Anesthetized mice were co-injected iv with 3 × 10^5 cpm-1×10^6 cpm ^125I/^14C-IRA and 5 × 10^5 cpm of ^99mTc-Alb in 0.2 ml BSA-LR with or without 1 μg of the non-radioactive IRA. Fifteen minutes after iv injection, blood was collected from the right carotid artery, and the whole brain was removed and weighed. Samples were counted for radioactivity. Results were expressed as delta B/S ratios in units of μl/g."}, "[2]": {"assay": "Long-term (6 h) measurement of brain uptake", "type": "in vivo, male CD-1 mice", "settings": "mouse, in vivo, iv", "description": "Substances that are enzymatically stable in blood and have slow clearance from the circulation can slowly enter the brain using the extracellular pathways.[63],[64] […] Albumin enters the brain by extracellular pathways,[70] and so we used albumin in two ways: we used ^99mTc-Alb circulating for 10 min to measure vascular space and ^99mTc-Alb circulating for 6 h to measure brain uptake by extracellular pathways. This is similar to the time-differential methodology developed by Poduslo and Curran to measure a substance’s vascular space and its uptake rate.[71] Following anesthetization, the jugular vein and right carotid artery were exposed. Mice were given an iv injection of 0.1% BSA-LR containing 1 × 10^6 cpm of ^125I-IRA or 5 × 10^5 cpm of ^99mTc-Alb, which circulated for 6 h. Mice receiving only the ^125I-IRA were given an injection of 5 × 10^5 cpm of ^99mTc-Alb 10 min prior to the end of the 6 h circulation time to act as a vascular marker. A separate set of mice received an iv injection of both 1 × 10^6 cpm of ^125I-IRA and 5 × 10^5 cpm of ^99mTc-Alb that circulated for 10 min. Following the 10 min or 6 h circulation time points, blood and brain were collected as described above. Thus, we had B/S ratios for ^99mTc-Alb measuring vascular space (10 min circulation time) and B/S ratios for ^99mTc-Alb measuring vascular space plus uptake by the extracellular pathways (6 h circulation time) which could be compared to the B/S ratios for the ^125I-IRAs after 10 min and 6 h of circulation.\nImmediately after counting the radioactivity, the blood and brains from the 10 min and 6 h time points were processed as described in Section 2.5 for in vivo stability. For further comparison, data from the 1 h time point were taken from the original pharmacokinetic uptake study. The ^125I-IRA brain % acid precipitation (%AP) was divided by the ^125I-IRA serum %AP at each time point to calculate the %AP B/S ratio. This value was multiplied by the B/S ratio for each ^125I-IRA to correct for degradation over the 10 min, 1 h, or 6 h time periods. […]"}, "[3]": {"assay": "Octanol/buffer partition coefficient (lipid solubility)", "type": "physicochemical", "settings": "pH 7.5", "description": "We measured the lipid solubility of the IRAs, using octanol and PB. Briefly, 1 × 10^5 counts per minute (cpm) of each ^125I/^14C-IRA were added to triplicate tubes containing equal volumes PB and octanol (Sigma-Aldrich). This solution was vigorously mixed for 1 min and centrifuged at 5500 ×g for 10 min to separate the two phases. Aliquots of 100 μl were taken in duplicate from each phase, and total radioactivity was counted in a gamma counter (Wizard2, Perkin-Elmer) or beta counter (TriCarb 3110TR, Perkin-Elmer). The ratio of the cpm in the octanol phase to the cpm in the buffer phase equates to the mean partition coefficient (Pcoeff) and indicates lipophilicity. The log value for the coefficient can be either greater than unity, indicative of a lipophilic compound, or less than unity, indicative of a hydrophilic compound."}, "[4]": {"assay": "In vivo stability of 125I/14C-IRAs in brain (acid precipitation)", "parameters": "species or system male CD-1 mice", "settings": "mouse, iv", "description": "We measured the stability of the radiolabeled IRAs in brain and blood. Following anesthetization, arterial blood and whole brain were taken at two time points (10 or 60 min) after iv injection of 3 × 10^5 cpm-1×10^6 cpm of ^125I/^14C-IRA in 0.2 ml of BSA/LR. The blood samples were allowed to clot, centrifuged at 3200 ×g for 10 min, and 50 μl of the separated serum was added to 250 μl of BSA-LR. Samples were combined with equal volume 30% TCA (300 μl), mixed, and then centrifuged for 10 min at 5400 ×g. Brains were homogenized in 800 μl of BSA-LR with a bead beater for 30 sec at 4800 rpm twice. Following centrifugation at 5400 ×g for 15 min, a portion of the resulting supernatant was added to an equal volume of 30% TCA, mixed, and then centrifuged at 5400 ×g for 10 min. The radioactivity in the resulting supernatant and pellet (Sup and Pel fractions) for serum and brain was calculated separately, and the percent of radioactivity in the precipitate was calculated using the following equation:(1) %AcidPrecip=100×Pel/Sup+Pel\nTo correct for degradation that might have occurred during the processing, ^125I/^14C-IRA was added to non-radioactive arterial whole blood or to whole brain and processed as above. The biological samples were corrected for degradation during processing by dividing their values by those for processing control (Pcon) values and multiplying by 100. This can sometimes result in a value greater than 100%.\nImmediately after counting the radioactivity, the blood and brains from the 10 min and 6 h time points were processed as described in Section 2.5 for in vivo stability. For further comparison, data from the 1 h time point were taken from the original pharmacokinetic uptake study. The ^125I-IRA brain % acid precipitation (%AP) was divided by the ^125I-IRA serum %AP at each time point to calculate the %AP B/S ratio. This value was multiplied by the B/S ratio for each ^125I-IRA to correct for degradation over the 10 min, 1 h, or 6 h time periods. Corrected AP B/S ratios were then corrected for vascular space by subtracting the ^99mTc-Alb B/S ratio within each mouse for the 10 min and 6 h time points (AP corrected delta B/S ratio). For the 1 h time point, the average ^99mTc-Alb B/S ratio (10.03 μl/g) at 10 min across all ^125I-IRAs was used for correction. The AP corrected delta B/S ratio for each ^125I-IRA was then multiplied by the %Inj/ml within each mouse to calculate the AP corrected delta %Inj/g."}}, "data": [{"compound": "CC[C@H](C)[C@H](NC(=O)[C@H](CC(C)C)NC(=O)[C@H](Cc1c[nH]c2ccccc12)NC(=O)[C@H](CCC(N)=O)NC(=O)[C@@H](NC(=O)[C@H](Cc1ccccc1)NC(=O)[C@H](C)NC(=O)[C@H](CCCCNC(=O)COCCOCCNC(=O)COCCOCCNC(=O)CC[C@H](NC(=O)CCCCCCCCCCCCCCCCCCC(=O)O)C(=O)O)NC(=O)[C@H](CCC(N)=O)NC(=O)[C@H](C)NC(=O)[C@@H](NC(=O)[C@H](CCCCN)NC(=O)[C@H](CC(=O)O)NC(=O)[C@H](CC(C)C)NC(=O)C(C)(C)NC(=O)[C@@H](NC(=O)[C@H](CO)NC(=O)[C@H](Cc1ccc(O)cc1)NC(=O)[C@H](CC(=O)O)NC(=O)[C@H](CO)NC(=O)[C@@H](NC(=O)[C@H](Cc1ccccc1)NC(=O)[C@@H](NC(=O)CNC(=O)[C@H](CCC(=O)O)NC(=O)C(C)(C)NC(=O)[C@@H](N)Cc1ccc(O)cc1)[C@@H](C)O)[C@@H](C)O)[C@@H](C)CC)[C@@H](C)CC)C(C)C)C(=O)N[C@@H](C)C(=O)NCC(=O)NCC(=O)N1CCC[C@H]1C(=O)N[C@@H](CO)C(=O)N[C@@H](CO)C(=O)NCC(=O)N[C@@H](C)C(=O)N1CCC[C@H]1C(=O)N1CCC[C@H]1C(=O)N1CCC[C@H]1C(=O)N[C@@H](CO)C(N)=O", "note": "[Tirzepatide]", "values": [{"measurement": "Whole Brain delta brain/serum ratio, Without unlabeled IRA", "setting": "[1]", "value": "-0.16 ± 0.13", "unit": "µL/g"}, {"measurement": "Amount present in brain at 6 h (AP corrected delta %Inj/g)", "setting": "[2]", "value": 0.005, "unit": "%Inj/g"}, {"measurement": "Lipid Solubility Partition Coefficient", "setting": "[3]", "value": "0.1318 ± 0.0126"}, {"measurement": "Log Partition Coefficient (Log P)", "setting": "[3]", "value": "-0.884 ± 0.0405"}, {"measurement": "Percentage of labeled IRA intact, Whole Brain, 10 min", "setting": "[4]", "value": "100.7 ± 0.0", "unit": "%"}, {"measurement": "Percentage of labeled IRA intact, Whole Brain, 60 min", "setting": "[4]", "value": "99.73 ± 0.6", "unit": "%"}]}]}
